Columns and labels:
Assay type in all cases: cell-based, E. coli
[1] = system: luxCDABE gene fusions of the Lux-A Collection; experiment: Induction of Lux-A Collection gene fusions by MMC (and yebF fusion by nalidixic acid); settings: light-producing transformants with inverted insert (20% of them)
Description: The Lux-A Collection of reporter gene fusions was examined for presence of fusions to the genes in Table 11. […] Each of these was tested for induction by MMC at several doses over a time course of 100 minutes.
As expected, the expression of the known SOS genes was elevated; however the expression of several was elevated less than 2-fold (Table 12) and as such were within a large group of 792 genes the expression of which was elevated by 20% or more. Most of these are likely due to artifacts in the array data rather than to actual biologically relevant responses. To test if strains carrying luxCDABE gene fusions would yield the expected positive result, the three gene fusions that were available in the Lux-A Collection of reporter gene fusions were tested for mitomycin C responses.
In this case, a divergent promoter to the purT gene was present in the chromosomal fragment and strains containing the backward yebF fusion produced light. […] […] The orientation of the inserted segment to yield a fusion of yebF to the luxCDABE operon was confirmed by DNA sequence analysis.

[2] = system: Luxarray 0.5 reporter clones; experiment: Luxarray 0.5 solid phase perturbation with nalidixic acid (luminometer); settings: 1 and 5 μg/ml plates, 2 hrs
Description: A solid phase assay system consisting of reporter clones growing in the presence or absence of a perturbation, biological, environmental was developed. This was accomplished by growing the reporters on a porous membrane (Biodyne B, Nunc) seated on top of solid growth media in a culture dish (OmniTray, Nunc). Luminescence was measured either by a luminometer or by creating an image of the entire culture and quantitating the pixel density. Effects of perturbants can be determined by comparison of luminescence generated by treated and control cultures. Growth on the surface of the membrane allows the reporter assay to be moved between conditions as required. […]
Membranes were sterilized with UV illumination for 10 min then placed in contact with prewarmed media in a culture dish. […] Luminescence data was collected for each spot for 40 cycles of 20 min duration (overnight). […] Without exception, the signal strength measured corroborated the data obtained in liquid culture. […]
Next the system was evaluated for its ability to determine responses to perturbation, in this case, DNA damage caused by nalidixic acid Parental clone and two nonresponding reporters, osmY, and lacZYA, and three DNA damage responsive reporters, uvrA, recA, dinG, were chosen. […] The membranes were moved to new, pre-warmed plates containing varying amounts of nalidixic acid and light readings collected with an ML3000 luminometer. […]

[3] = system: luxCDABE gene fusions in lexA+ host; experiment: Mitomycin C and nalidixic acid responses in lexA+ host; settings: for NA Ratio, 2 hr 10 ug/ml: lexA+ host
Description: In addition, the effect of a lexAind mutation was tested to determine if any of these were part of the SOS regulon. The expectation is that SOS regulon member will be induced by both nalidixic acid and mitomycin C in a manner that is dependent on lexA function (Walker, G. C., (1996) Escherichia coli and Salmonella: Cellular and Molecular Biology ASM Press). […] This is consistent with the observation of upregulation of the b1728 mRNA transcript upon mitomycin C treatment in a LexA dependent fashion (Fernández de Henestrosa et al. (2000). Mol. Microbiol. 35:1560-1572). Likewise, two Gene fusions, those to oraA and yigN were identified is new members of the SOS regulon (Table 16). […] Negative, non-DNA damage responsive gene fusions were also included (Table 16).

Question: What does the source list for `CCn1cc(C(=O)O)c(=O)c2ccc(C)nc21` [Nalidixic acid, nalidixic acid]?
Answer: induction of bioluminescence of inverted yebF-luxCDABE fusion [1]: highly induced; bioluminescence on solid medium ([2]; SOS regulon reporters uvrA, recA, dinG): increased bioluminescence; bioluminescence on solid medium ([2]; non-DNA damage responsive fusions osmY and lacZYA): unaffected; NA Ratio, 2 hr 10 ug/ml ([3]; 1pxA 1pxB rnhB dnaE fusion (lux-a.pk061.c3)): 2.87; NA Ratio, 2 hr 10 ug/ml ([3]; b1728 fusion (lux-a.pk033.c5)): 5.17; NA Ratio, 2 hr 10 ug/ml ([3]; b1936 fusion (lux-a.pk0019.g1)): 3.25; NA Ratio, 2 hr 10 ug/ml ([3]; dinG ybiB fusion (lux-a.pk0024.f5)): 4.03; NA Ratio, 2 hr 10 ug/ml ([3]; fusion (lux-a.pk0015.d6)): 3.22; NA Ratio, 2 hr 10 ug/ml ([3]; lacZ fusion (65.d4), negative control): 0.81; induction of b1728 promoter-luxCDABE fusion ([3]; lexA+ host (FIG. 9)): clearly induced; NA Ratio, 2 hr 10 ug/ml ([3]; oraA fusion (lux-a.pk058.f5)): 11.06; NA Ratio, 2 hr 10 ug/ml ([3]; yaaF fusion (lux-a.pk031.e7)): 1.53; NA Ratio, 2 hr 10 ug/ml ([3]; yciG fusion (lux-a.pk006.b4), negative control): 0.32; NA Ratio, 2 hr 10 ug/ml ([3]; yigN fusion (lux-a.pk046.f11)): 5.74

— patent US20040009485A1, “Cellular arrays for the identification of altered gene expression” (priority 2002, published 2004)
